The source of these data is patent US6117833A, “Bleaching compositions and method for bleaching substrates directly with air” (priority 1998, dated 2000).

Entries after “also recorded” stand apart in the source; their conditions may differ.

Assay [1] in a line: Bleaching on BC-1 by 4-Ethylbenzaldehyde with various initiators. The arrangement: key to Δ(ΔR), #1 / Δ(ΔR), #2 / Δ(ΔR), #3 / Δ(ΔR), Average / ΔΔRave: Δ(ΔR): reflectance change of stained cloth relative to buffer ΔR. To be noted: for cleaning / bleaching (in words): initiator alone or 4-EBA alone. The procedure:
A series of experiments were conducted to evaluate the bleaching effectiveness of NHPI and related imides. Table IV reports the effectiveness on tea stained cloth swatches by various imide initiators in combination with 4-ethylbenzaldehyde.
Value for Carbonate Buffer = ΔR
Value for Initiator = Δ(ΔR)
Value for 4EBA + Initiator = Δ(ΔR)
* = Statistically significant bleaching over buffer alone (σav

A short description of assay [2]: Bleaching of tea-stained (BC-1) swatches by aldehyde + NHPI + air in Tergotometer (change in reflectance). To be noted: aldehyde 15 mM, NHPI 1 mM, carbonate buffer, 30 min, 25° C., 460 nm, average of 2 values (6 for * = Exceptional Bleaching Aldehyde). The procedure:
A general outline of the essential steps in our experimental protocol are shown below.
a) Measure the initial reflectance of the swatches (Ri).
b) Saturate the wash solution with air.
c) Wash, rinse and dry the swatches.
d) Measure the final reflectance of the swatches (Rf).
All work was conducted in a Tergotometer with 2L stainless steel pots. The swatches were dried flat on a rack in a Kenmore dryer. […] The conditions utilized were as follows:
Initiator N-Hydroxyphthalimide (NHPI, 1 mM)
Aldehyde Aldehyde (15 mM)
Each Tergotometer Pot was filled with 1 liter of milli-Q-water containing carbonate buffer solution which was saturated for 15 minutes with air under agitation at 25° C. Tea stained (BC-1) swatches were washed for 30 minutes in the presence of aldehyde, air and NHPI at pH=8 (25° C.). The corresponding controls (buffer alone, NHPI alone and aldehyde alone) were performed simultaneously. All swatches were rinsed twice for 3 minutes with agitation at 25° C. and dried flat on a rack in a Kenmore with soft heat for 30 minutes.
To quantify the degree of stain removal, the reflectance of 4 stained swatches (4 per pot) were measured before and after washing using a Gardner reflectometer (Model #2000) set at 460*nm (*UV filter). The change in reflectance (ΔR) was determined by taking the difference of the swatch before and after each washing. The standard deviation (σ) and ΔΔRave was assigned to each experimental group.
Rl =Initial reflectance of stained swatch before washing.
Rf =Final reflectance of stained swatch after washing.
ΔRaldehyde system+control -ΔRcontrol =ΔΔR
ΔΔRave =Represents the average bleaching by the aldehyde system.
In general, the larger the ΔΔRave value, the greater the bleaching and cleaning.
(σ)=[Σ^n aj -aa)^2 /N-I]^0.5
Σ^n =sum (aj -aa)^2 per measurement
N=number of measurements=8

Turning to `CCc1ccc(C=O)cc1` [4-Ethylbenzaldehyde], the “cleaning / bleaching (in words)” value in assay [1] is “small and inconsistent; also recorded: do not effectively clean stubborn tea stains”. In assay [2], the “ΔΔRave on BC-1 at pH = 8” value turned out to be 11.5.
For the molecule `O=C1c2ccccc2C(=O)N1O` [NHPI, N-hydroxyphthalimide], the “ΔΔRave” value in assay [1] (initiator alone) is on record as -0.2. Moreover, the “cleaning / bleaching (in words)” value in assay [1] is “did not provide a cleaning benefit”. The “Δ(ΔR), Average” value in assay [1] (initiator alone, 1 mM, average of #1-#3, σav = 0.4) is given as -0.3. Besides, the “Δ(ΔR), #1” value in assay [1] (initiator alone, 1 mM, run #1, σav = 0.4) is given as -0.1. Also, the “Δ(ΔR), #2” value in assay [1] (initiator alone, 1 mM, run #2, σav = 0.4) is recorded as 0.1. Besides, the “Δ(ΔR), #3” value in assay [1] (initiator alone, 1 mM, run #3, σav = 0.4) was -0.7.
